Experimental data published in the supplement of paper PMC6045584.
± gives the standard deviation of the averaged measurements.

Legend:
VINORELBINE = compound: CCC1=C[C@@H]2CN(C1)Cc1c([nH]c3ccccc13)[C@@](C(=O)OC)(c1cc3c(cc1OC)N(C)[C@H]1[C@@](O)(C(=O)OC)[C@H](OC(C)=O)[C@]4(CC)C=CCN5CC[C@]31[C@@H]54)C2 [VINORELBINE]; assay: surviving fraction relative to DMSO-only wells; higher = less growth inhibition; settings: exposure time: 5 days
In short: (§1)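 Tumour cell lines in log phase were plated in 384-well plates at 250–500 cells per well, then, after 24 hours, exposed continuously for five days to inhibitors at 0.5, 1, 5, 10, 50, 100, 500 and 1000 nM. Viability came from CellTiter-Glo luminescence, and surviving fraction is that signal normalised to the median of DMSO-only wells. Plates were read after 10 minutes at room temperature, and each line, screened three times, was kept only when replicate Pearson r was >0.7 and median Z' was >0.3.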

SUNITINIB = compound: CCN(CC)CCNC(=O)c1c(C)[nH]c(/C=C2\C(=O)Nc3ccc(F)cc32)c1C [SUNITINIB]; assay: as above; settings: exposure time: 5 days
In short: as §1

Test System | surviving fraction (VINORELBINE; 0.5 nM) | surviving fraction (VINORELBINE; 1 nM) | surviving fraction (VINORELBINE; 5 nM) | surviving fraction (VINORELBINE; 10 nM) | surviving fraction (VINORELBINE; 50 nM) | surviving fraction (VINORELBINE; 100 nM) | surviving fraction (VINORELBINE; 500 nM) | surviving fraction (VINORELBINE; 1000 nM) | surviving fraction (SUNITINIB; 0.5 nM) | surviving fraction (SUNITINIB; 1 nM) | surviving fraction (SUNITINIB; 50 nM) | surviving fraction (SUNITINIB; 100 nM) | surviving fraction (SUNITINIB; 500 nM) | surviving fraction (SUNITINIB; 1000 nM) | surviving fraction (SUNITINIB; 5 nM) | surviving fraction (SUNITINIB; 10 nM)
22RV1 PROSTATE | 1.04 ± 0.039 | 1.01 ± 0.057 | 0.916 ± 0.13 | 0.655 ± 0.12 | 0.12 ± 0.028 | 0.0623 ± 0.0038 | 0.0587 ± 0.012 | 0.06367 ± 0.00058 | 0.975 ± 0.028 | 0.952 ± 0.021 | 0.937 ± 0.1 | 0.932 ± 0.027 | 0.739 ± 0.049 | 0.41 ± 0.029 |  | 
93VU HEADNECK | 1.02 ± 0.11 | 1.02 ± 0.19 | 1.04 ± 0.034 | 1.05 ± 0.075 | 0.554 ± 0.011 | 0.292 ± 0.03 | 0.141 ± 0.015 | 0.145 ± 0.022 | 0.817 ± 0.07 | 0.819 ± 0.059 | 1.11 ± 0.055 | 0.93 ± 0.057 | 0.261 ± 0.026 | 0.158 ± 0.025 | 0.85 ± 0.03 | 0.823 ± 0.078
143B BONE | 1 ± 0.02 | 1.016 ± 0.0057 | 1.016 ± 0.0071 | 0.864 ± 0.024 | 0.229 ± 0.0071 | 0.1625 ± 0.00071 | 0.039 ± 0.0028 | 0.0345 ± 0.00071 | 0.982 ± 0.044 | 1.01 ± 0.026 | 1.01 ± 0.019 | 1.008 ± 0.0042 | 0.824 ± 0.067 | 0.461 ± 0.055 | 1.01 ± 0.022 | 1.02 ± 0.035
A549 LUNG | 0.982 ± 0.049 | 0.989 ± 0.049 | 0.979 ± 0.053 | 0.968 ± 0.045 | 0.461 ± 0.034 | 0.308 ± 0.023 | 0.228 ± 0.0085 | 0.274 ± 0.015 | 0.922 ± 0.021 | 0.907 ± 0.029 | 0.991 ± 0.026 |  | 1.04 ± 0.014 | 1.03 ± 0.02 | 0.903 ± 0.013 | 0.89 ± 0.031
ASKA SYNOVIAL | 0.912 ± 0.086 | 0.846 ± 0.075 | 0.43 ± 0.029 | 0.306 ± 0.015 | 0.247 ± 0.026 | 0.229 ± 0.02 | 0.257 ± 0.03 | 0.334 ± 0.022 | 0.864 ± 0.079 | 0.768 ± 0.059 | 0.867 ± 0.043 | 0.659 ± 0.04 | 0.441 ± 0.034 | 0.104 ± 0.0093 | 0.858 ± 0.028 | 0.328 ± 0.056
BT20 BREAST | 1.16 ± 0.21 | 0.875 ± 0.22 | 0.973 ± 0.076 | 0.709 ± 0.18 | 0.0683 ± 0.025 | 0.055 ± 0.019 | 0.106 ± 0.029 | 0.09 ± 0.03 | 0.794 ± 0.14 | 0.732 ± 0.05 | 1 ± 0.16 | 1.23 ± 0.23 | 1.31 ± 0.2 | 1.21 ± 0.16 | 0.757 ± 0.081 | 0.783 ± 0.14
BT549 BREAST | 1.13 ± 0.039 | 1.21 ± 0.15 | 0.934 ± 0.12 | 0.618 ± 0.099 | 0.146 ± 0.037 | 0.132 ± 0.023 | 0.154 ± 0.043 | 0.158 ± 0.018 | 0.8 ± 0.11 | 0.861 ± 0.048 | 1.11 ± 0.13 | 1.12 ± 0.16 | 1.19 ± 0.11 | 0.785 ± 0.069 | 0.854 ± 0.065 | 0.794 ± 0.13
CADOES1 SOFT TISSUE | 0.972 ± 0.19 | 0.882 ± 0.043 | 0.928 ± 0.12 | 0.84 ± 0.073 | 0.877 ± 0.12 | 0.825 ± 0.038 | 0.201 ± 0.013 | 0.0913 ± 0.0064 |  | 0.976 ± 0.12 | 0.885 ± 0.086 | 1.03 ± 0.032 |  | 0.609 ± 0.11 | 0.892 ± 0.044 | 0.967 ± 0.083
CAL51 BREAST | 0.926 ± 0.047 | 0.945 ± 0.016 | 0.736 ± 0.035 | 0.452 ± 0.011 | 0.0567 ± 0.0027 | 0.045 ± 0.0027 | 0.0317 ± 0.0015 | 0.0318 ± 0.0033 | 0.886 ± 0.047 | 0.895 ± 0.012 |  | 1.01 ± 0.035 | 0.52 ± 0.031 | 0.202 ± 0.031 | 0.94 ± 0.011 | 0.934 ± 0.053
CAL120 BREAST | 0.969 ± 0.032 | 0.9515 ± 0.0038 | 0.782 ± 0.015 | 0.623 ± 0.026 | 0.169 ± 0.017 | 0.157 ± 0.0098 | 0.154 ± 0.02 | 0.14 ± 0.0076 | 0.881 ± 0.021 | 0.882 ± 0.036 | 0.891 ± 0.023 | 0.891 ± 0.038 | 0.64 ± 0.039 | 0.386 ± 0.037 | 0.876 ± 0.047 | 
CASKI CERVIX | 0.919 ± 0.041 | 0.911 ± 0.046 | 0.702 ± 0.014 | 0.188 ± 0.027 | 0.0597 ± 0.0076 | 0.087 ± 0.005 | 0.106 ± 0.012 | 0.1 ± 0.0083 | 0.757 ± 0.041 | 0.731 ± 0.072 | 0.891 ± 0.088 | 0.717 ± 0.039 | 0.166 ± 0.0025 | 0.0627 ± 0.004 | 0.792 ± 0.052 | 0.763 ± 0.064
CHLA90 AUTONOMIC GANGLIA | 1.009 ± 0.01 | 1.05 ± 0.036 | 0.951 ± 0.058 | 0.768 ± 0.011 | 0.177 ± 0.023 | 0.105 ± 0.012 | 0.0883 ± 0.012 | 0.0917 ± 0.0061 | 0.885 ± 0.043 | 0.803 ± 0.062 |  | 0.776 ± 0.047 | 0.779 ± 0.015 | 0.201 ± 0.02 | 0.805 ± 0.025 | 0.248 ± 0.019
CME SYNOVIAL | 1.11 ± 0.17 | 1.09 ± 0.11 | 1.21 ± 0.11 | 1.08 ± 0.12 | 0.488 ± 0.098 | 0.355 ± 0.085 | 0.275 ± 0.039 | 0.333 ± 0.033 | 0.928 ± 0.17 | 0.551 ± 0.019 |  | 0.82 ± 0.032 | 0.767 ± 0.1 | 0.0447 ± 0.0074 |  | 0.036 ± 0.0027
COLO320DM LARGE INTESTINE | 1 ± 0.036 | 1.08 ± 0.059 | 1.06 ± 0.12 | 1.12 ± 0.088 | 1.09 ± 0.047 | 0.9883 ± 0.006 | 0.534 ± 0.022 | 0.293 ± 0.012 |  | 0.921 ± 0.045 | 0.929 ± 0.057 | 0.871 ± 0.075 | 0.324 ± 0.026 | 0.115 ± 0.011 | 0.957 ± 0.063 | 0.369 ± 0.055
DU4475 BREAST | 0.973 ± 0.088 | 1.01 ± 0.025 | 1.01 ± 0.14 | 0.906 ± 0.095 | 0.403 ± 0.091 | 0.211 ± 0.027 | 0.0703 ± 0.016 | 0.051 ± 0.015 | 0.742 ± 0.17 | 0.797 ± 0.12 | 0.668 ± 0.12 | 0.649 ± 0.21 | 0.428 ± 0.18 | 0.1 ± 0.029 | 0.716 ± 0.14 | 0.771 ± 0.18
H23 LUNG | 1.03 ± 0.046 | 0.9937 ± 0.0096 | 1.04 ± 0.039 | 0.84 ± 0.014 | 0.205 ± 0.015 | 0.173 ± 0.011 | 0.22 ± 0.002 | 0.1743 ± 0.0015 | 0.953 ± 0.023 | 0.918 ± 0.013 |  | 0.829 ± 0.014 | 0.598 ± 0.06 | 0.368 ± 0.021 |  | 0.885 ± 0.045
HCC38 BREAST | 1.19 ± 0.19 | 1.12 ± 0.3 | 1.24 ± 0.14 | 1.06 ± 0.12 | 0.223 ± 0.039 | 0.216 ± 0.029 | 0.334 ± 0.06 | 0.251 ± 0.0055 | 0.845 ± 0.24 | 0.893 ± 0.22 | 1.16 ± 0.1 | 1.18 ± 0.11 | 1.04 ± 0.22 | 0.76 ± 0.21 | 0.966 ± 0.15 | 
HCC70 BREAST | 1.04 ± 0.032 | 1.01 ± 0.014 | 0.937 ± 0.042 | 0.752 ± 0.029 | 0.108 ± 0.012 | 0.129 ± 0.013 | 0.131 ± 0.015 | 0.132 ± 0.02 | 1.01 ± 0.029 |  |  |  | 1.15 ± 0.11 |  | 1 ± 0.096 | 0.904 ± 0.045
HCC78 LUNG | 0.958 ± 0.18 | 0.806 ± 0.26 | 0.877 ± 0.25 | 0.575 ± 0.15 | 0.0987 ± 0.045 | 0.094 ± 0.016 | 0.0637 ± 0.012 | 0.042 ± 0.011 | 0.831 ± 0.076 | 0.925 ± 0.054 | 1.24 ± 0.33 | 1.34 ± 0.44 | 1.67 ± 0.23 | 0.633 ± 0.1 | 0.95 ± 0.099 | 0.46 ± 0.089
HCC202 BREAST | 1.25 ± 0.24 | 1.21 ± 0.12 | 0.946 ± 0.088 | 0.603 ± 0.14 | 0.383 ± 0.12 | 0.313 ± 0.06 | 0.234 ± 0.056 | 0.205 ± 0.033 | 0.879 ± 0.093 | 0.806 ± 0.23 | 1.26 ± 0.17 |  | 0.714 ± 0.15 | 0.639 ± 0.06 | 1.29 ± 0.32 | 0.801 ± 0.19
HCC1806 BREAST | 0.976 ± 0.16 | 1.02 ± 0.075 | 1.01 ± 0.077 | 0.173 ± 0.14 | 0.0363 ± 0.0095 | 0.0347 ± 0.0038 | 0.042 ± 0.001 | 0.041 ± 0.0053 | 0.677 ± 0.078 | 0.59 ± 0.41 | 1 ± 0.091 | 0.978 ± 0.11 | 0.677 ± 0.039 | 0.397 ± 0.044 | 0.667 ± 0.45 | 0.566 ± 0.43
